Test results reported in patent US8163921B2, “Hepatitis C virus inhibitors” (Bristol-Myers Squibb Company, priority 2008, dated 2012).
pIC50: −log10 of the molar value.

Tests used:
[1] = biological target: T1, HCV NS3/4A protease complex, BMS strain (UniProt P27958, C1454S/C1711G, species not given); assay: FRET peptide assay to monitor HCV NS3/4A proteolytic activity (BMS strain); type: biochemical, HCV genotype 1a; conditions: read-out: IC50 Range; HCV NS3/4A enzyme assay; class symbols
T1 construct: other: HCV NS3/4A enzyme assay; class symbols; numeric values; fused on or other part: three-lysine solubilising tail at the C-terminus of NS4A; purified on Ni-NTA from the pET21b vector (His tag implied)
Outline: (§1)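 Recombinant HCV NS3/4A protease complex (BMS strain, genotype 1a), 2-3 nM final (300 pM with 50 μg/ml BSA for very potent compounds), incubated with RET S1 EDANS/DABCYL depsipeptide substrate at 2 μM final. Buffer: 50 mM HEPES pH 7.5, 0.15 M NaCl, 0.1% Triton, 15% glycerol, 10 mM βME. Cleavage followed in real time by fluorescence.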

[2] = biological target: T2, HCV NS3/4A protease complex, BMS strain (UniProt P27958, C1454S/C1711G, species not given/STRAIN_BMS); assay: as above; type: biochemical, HCV genotype 1a; conditions: read-out: IC50 against the NS3/4A BMS strain in the enzyme assay; BMS strain
T2 construct: other: BMS strain; fused on or other part: three-lysine solubilising tail at the C-terminus of NS4A; purified on Ni-NTA from the pET21b vector (His tag implied)
Outline: as §1

[3] = biological target: T3, human liver cathepsin B (Homo sapiens, UniProt P07858); assay: Specificity assay, cathepsin B; type: biochemical; conditions: read-out: Cathepsin B activity in the specificity assays
T3 construct: purchased Sigma, EMDbiosciences; host or cells: human liver (as named)
Procedure: The specificities of compounds of the present disclosure were determined against a variety of serine proteases: human neutrophil elastase (HNE), porcine pancreatic elastase (PPE) and human pancreatic chymotrypsin and one cysteine protease: human liver cathepsin B. In all cases a 96-well plate format protocol using a fluorometric Amino-Methyl-Coumarin (AMC) substrate specific for each enzyme was used as described previously (PCT Patent Application No. WO 00/09543) with some modifications to the serine protease assays. All enzymes were purchased from Sigma, EMDbiosciences while the substrates were from Bachem, Sigma and EMDbiosciences.
Compound concentrations varied from 100 to 0.4 μM depending on their potency. The enzyme assays were each initiated by addition of substrate to enzyme-inhibitor pre-incubated for 10 min at room temperature and hydrolysis to 15% conversion as measured on cytofluor.
100 mM NaOAC (Sodium Acetate) pH 5.5, 3% DMSO, 1 mM TCEP (Tris(2-carboxyethyl)phosphine hydrochloride), 5 nM Cathepsin B (enzyme stock activated in buffer containing 20 mM TCEP before use), and 2 μM Z-FR-AMC diluted in H2O.
The percentage of inhibition was calculated using the formula: [1−((UVinh−UVblank)/(UVctl−UVblank))]×100
A non-linear curve fit was applied to the inhibition-concentration data, and the 50% effective concentration (IC50) was calculated by the use of Excel XLfit software.

## C=C[C@@H]1C[C@]1(NC(=O)[C@@H]1C[C@@H](Oc2ncc(OC)c3ccc(Cl)cc23)CN1C(=O)[C@@H](Nc1nc(-c2cccc(OC(F)(F)F)c2)cs1)C(C)(C)C)C(=O)NS(=O)(=O)C1CC1 [Example 68]
[1]
  pIC50: 7.70 to 9.00
[2]
  pIC50: 8.40
[3]
  pIC50: 4.82
